In brackets after ≈: the same amount, converted by molar mass.
How the values were obtained:
Assay in all cases: In vitro antibacterial activity, two-fold agar-plate dilution method
Type in all cases: cell-based
[1] = test system: Pr. mirabilis 18; conditions: Proteus mirabilis, HI-agar, 37° C., 20 hours, 10^6 viable cells per ml
Description: (§1) In vitro antibacterial activity was determined by the two-fold agar-plate dilution method as described below.
(§2) One loopful of an overnight culture of each test strain in Trypticase-soy broth (10^6 viable cells per ml.) was streaked on heart infusion agar (HI-agar) containing graded concentrations of antibiotics, and the minimum inhibitory concentration (MIC) was expressed in terms of μg/ml after incubation at 37° C. for 20 hours.

[2] = test system: E. coli 31; conditions: Escherichia coli, HI-agar, 37° C., 20 hours, 10^6 viable cells per ml
Description: as §1, §2

[3] = test system: Kl. pneumoniae 20; conditions: Klebsiella pneumoniae, HI-agar, 37° C., 20 hours, 10^6 viable cells per ml
Description: as §1, §2

[4] = test system: Pr. vulgaris 2; conditions: Proteus vulgaris, HI-agar, 37° C., 20 hours, 10^6 viable cells per ml
Description: as §1, §2

| SMILES | MIC [1] | MIC [2] | MIC [3] | MIC [4] |
| --- | --- | --- | --- | --- |
| CON=C(C(=O)NC1C(=O)N2C(C(=O)O)=CCOC12)c1csc(N)n1 (stereo not drawn) [(1), 7β-[2-Methoxyimino-2-(2-aminothiazol-4-yl)acetamid]-1-oxadethia-3-cephem-4-carboxylic acid (syn isomer)] | 0.05 µg/mL (≈ 0.136 µM) | 0.05 µg/mL (≈ 0.136 µM) | 0.1 µg/mL (≈ 0.272 µM) | 0.2 µg/mL (≈ 0.544 µM) |
| CON=C(C(=O)NC1C(=O)N2C(C(=O)O)=CCOC12)c1nsc(N)n1 (stereo not drawn) [(4), 7β-[2-Methoxyimino-2-(5-amino-1,2,4-thiadiazol-3-yl)acetamido]-1-oxadethia-3-cephem-4-carboxylic acid (syn isomer)] | 0.1 µg/mL (≈ 0.271 µM) | 0.025 µg/mL (≈ 0.0679 µM) | 0.05 µg/mL (≈ 0.136 µM) | 0.1 µg/mL (≈ 0.271 µM) |
| CC(C)ON=C(C(=O)NC1C(=O)N2C(C(=O)O)=CCOC12)c1csc(N)n1 (stereo not drawn) [(3), 7β-[2-Isopropoxyimino-2-(2-aminothiazol-4-yl)acetamido]-1-oxadethia-3-cephem-4-carboxylic acid (syn isomer)] | 0.1 µg/mL (≈ 0.253 µM) | 0.2 µg/mL (≈ 0.506 µM) | 0.05 µg/mL (≈ 0.126 µM) | 0.1 µg/mL (≈ 0.253 µM) |
| CON=C(C(=O)NC1C(=O)N2C(C(=O)O)=CCOC12)c1nccc(N)n1 (stereo not drawn) [(5), 7β-[2-Methoxyimino-2-(4-aminopyrimidin-2-yl)acetamido]-1-oxadethia-3-cephem-4-carboxylic acid (syn isomer)] | 0.05 µg/mL (≈ 0.138 µM) | 0.025 µg/mL (≈ 0.069 µM) | 0.05 µg/mL (≈ 0.138 µM) | 0.1 µg/mL (≈ 0.276 µM) |
| CCON=C(C(=O)NC1C(=O)N2C(C(=O)O)=CCOC12)c1csc(N)n1 (stereo not drawn) [(2), 7β-[2-Ethoxyimino-2-(2-aminothiazol-4-yl)acetamido]-1-oxadethia-3-cephem-4-carboxylic acid (syn isomer)] | 0.05 µg/mL (≈ 0.131 µM) | 0.05 µg/mL (≈ 0.131 µM) | 0.025 µg/mL (≈ 0.0656 µM) | 0.05 µg/mL (≈ 0.131 µM) |

Reference: patent US4234724A, “Cephalosporin analogues and processes for the preparation thereof” (Fujisawa Pharmaceutical Company, Limited, priority 1977, dated 1980)
